Patent publication US20250120890A1, “Oral Care Compositions Comprising Hops Beta Acids And Tin” (The Procter & Gamble Company, priority 2023, published 2025)

Test: Headspace measurement of DMDS and MeSH from dentifrice samples by SPME GC-SCD
Assay type: physicochemical
Details: 0.100 wt % in stannous dentifrice, each pair of samples with/without
Method: The oral care compositions of TABLE 2 were prepared by combining one or more humectants, water, sweetener(s), and metal salts, buffers, dyes, and/or stabilizing agents to create a liquid mixture. The liquid mixture was homogenized at 25° C. until homogeneous and completely dissolved. Next, sodium hydroxide (50% solution) was added to the liquid mixture, and the liquid mixture was homogenized at 25° C. until homogeneous and completely dissolved. A separate powder mixture was prepared by combining the abrasive silica, thickening silica, and opacifier, with any thickening agents, such as xanthan gum, Gantrez, and/or sodium carboxymethylcellulose. The powder mixture was then combined with the liquid mixture and homogenized completely. Next, the surfactant, such as sodium lauryl sulfate, flavor, optional Michael acceptor (“MA”), and optional hops extract were added to the mixture. The contents were homogenized at 25° C. until homogeneous, and entrained air was removed by vacuum. […]
Each salt described in Table 3 was weighed with a Mettler Toledo XSE 205 DualRange balance (Mettler Toledo USA, Columbus, OH, USA) and quantitatively transferred to a 600-mL beaker. […]

C/C=C/C(=O)C1C(C)C=CCC1(C)C (stereo not shown) [delta-damascone]
Effect on headspace levels of MeSH and DMDS: reduced the headspace levels of MeSH and DMDS substantially
